The results in this text go back to patent EP4763837A1, “PHOTOCHROMIC COMPOUND, CURABLE COMPOSITION, OPTICAL ARTICLE, LENS, AND EYEGLASSES” (TOKUYAMA CORPORATION, priority 2023, dated 2025).

Series [1] can be described thus: Solubility of photochromic compound in polymerizable compounds. The series is classed as physicochemical. The arrangement: key: 1: No haze is seen when checked under transmission of light, and the sample is completely dissolved.; 2: A very thin haze is seen to the extent that it can be seen under transmission of light.; 3: A thin haze that can be seen under transmission of light is seen.; 4: A haze can be seen even without transmission of light. To be noted: 35 µmol/g in radical polymerizable compound composition of Example 21, 65 to 70°C; for Dissolution for 15 min / Dissolution for 30 min / Dissolution for 45 min: stirring and ultrasonic irradiation; for Dissolution for 1 hour: head reads 60 min in Tables 8 to 14. The method, then: The photochromic compounds according to Examples and Comparative examples shown in Table 5 were evaluated for solubility in polymerizable compounds.
Specifically, a sample was prepared by adding each of the photochromic compounds to the composition, which consisted of a radical polymerizable compound, among the curable compositions used in Example 21.
Note that, this test was performed using "YOKAI-KUN USS-1" manufactured by NIHONSEIKI KAISHA LTD. under the following conditions: • Dissolution temperature: 65 to 70°C • Stirring condition: Stirring dial of 5. Ultrasonic irradiation condition: Irradiation interval of 3 sec.
Dissolution was checked every 15 minutes up to 1 hour later, the sample was visually checked by transmitting light through the sample, and a degree of dissolution was evaluated according to the following four evaluation criteria.
• 1: No haze is seen when checked under transmission of light, and the sample is completely dissolved. • 2: A very thin haze is seen to the extent that it can be seen under transmission of light. • 3: A thin haze that can be seen under transmission of light is seen. • 4: A haze can be seen even without transmission of light.
A shorter time required for the evaluation result to be 1 means higher solubility.

Series [2] is described as follows: Photochromic property of photochromic laminate made by coating method. To be noted: for Residual ratio / Color developing density at 23°C: laminate by coating method; for Residual ratio: A96/A0 x 100 after 96 hours accelerated degradation, xenon weather meter X25; for Color developing density at 23°C: absorbance difference after 240 seconds irradiation at the maximum absorption wavelength of the same line. The series is classed as physicochemical. From the text: First, the photochromic compound obtained in Example 1, a photoinitiator, and a polymerizable compound were mixed to obtain a curable composition.
The polymerizable compound was a combination of the following radical polymerizable monomers:
Polyethylene glycol dimethacrylate (average molecular weight: 736): 42 parts by mass • Polyethylene glycol dimethacrylate (average molecular weight: 536): 12 parts by mass • Trimethylolpropane methacrylate: 38 parts by mass γ-Methacryloyloxypropyltrimethoxysilane: 2 parts by mass Glycidyl methacrylate: 1 part by mass.
Note that, in the curable composition, the photochromic compound was added in an amount of 0.25 mmol taking a total amount of the radical polymerizable monomers as 100 g.
Phenylbis(2,4,6-trimethylbenzoyl)phosphine oxide (photoinitiator: Omnirad 819): 0.3 parts by mass Ethylene bis(oxyethylene) bis[3-(5-tert-butyl-4-hydroxy-m-tolyl) propionate] (stabilizer, Irganox 245): 1 part by mass Bis(1,2,2,6,6-pentamethyl-4-piperidyl)sebacate: 3 parts by mass Leveling agent (L-7001) manufactured by DuPont Toray Specialty Materials K.K.: 0.1 parts by mass.
Using this curable composition, a photochromic laminate was obtained by a lamination method including polymerization as follows.
First, a thiourethane plastic lens with a center thickness of 2 mm and a refractive index of 1.60 was prepared as an optical substrate. Note that, the thiourethane plastic lens had been alkaline-etched in a 10% sodium hydroxide aqueous solution at 50°C for 5 minutes in advance, and then thoroughly washed with distilled water.
A spin coater (1H-DX2, manufactured by MIKASA CO., LTD) was used to coat a surface of the above-mentioned plastic lens with a moisture-curing primer (product name: TR-SC-P, manufactured by Tokuyama Corporation) at a rotation speed of 70 rpm for 15 seconds, followed by 1000 rpm for 10 seconds. Then, about 2 g of the photochromic curable composition obtained above was spin-coated at a rotation speed of 60 rpm for 40 seconds, followed by 600 rpm for 10 to 20 seconds so as to achieve a photochromic coating layer with a thickness of 40 µm.
The lens of which surface had been coated with the photochromic curable composition (photochromic coating layer) was irradiated with light for 90 seconds in a nitrogen gas atmosphere using a metal halide lamp with an output of 200 mW/cm^2 to cure the coating. The resultant was then further heated at 110°C for 1 hour to produce a photochromic laminate with a photochromic layer.
Photochromic laminates were produced using the photochromic compounds obtained in Examples 2 to 20 in the same manner as in Example 21.
Photochromic laminates were obtained using photochromic compounds represented by Formulae (A) to (D) below in the same manner as in Example 21. [drawing 89] [drawing 90] [drawing 91] [drawing 92] [drawing 93]
The resulting photochromic laminates were evaluated by the below-mentioned methods. • (1) Photochromic property • [1] Maximum absorption wavelength (λmax): This is the maximum absorption wavelength after color development determined by a spectrophotometer manufactured by Otsuka Electronics Co., Ltd. (instantaneous multichannel photo detector MCPD3000) and was used as an index of a color tone upon color development. • [2] Color developing density at 23°C (A23): This is a difference between an absorbance {ε(240)} after irradiation with light at 23°C for 240 seconds and an absorbance ε(0) when not irradiated with light at the maximum absorption wavelength and was used as an index of a color developing density. The higher this value is, the better a photochromic property is. • [3] Color fading half-life at 23°C [τ1/2 (sec).)]: This is a period of time taken by an absorbance at the maximum absorption wavelength of a sample to decrease to 1/2 of {ε(240)-ε(0)} when irradiation is stopped after irradiation with light at 23°C for 240 seconds, and was used as an index of a color fading rate. The shorter this period of time is, the faster the color fading rate is. • [4] […]

Turning to `CCCCC1(CC)c2cc(N(C)c3ccccc3)ccc2-c2c1c1c(c3cc(OC)c(OC)cc23)OC(c2ccc(OC)cc2)(c2ccc(OCCC)cc2)C=C1` (centres unmarked) [Formula (82-1)], in series [1], the “Dissolution for 15 min” value is reported as 3, the “Dissolution for 30 min” value is reported as 2, the “Dissolution for 45 min” value was determined as 1 and the “Dissolution for 1 hour” value was 1.

In the case of `CCCCCCC1(CCCC)c2cc(OC)ccc2-c2c1c1c(c3cc(OC)c(Sc4c(C)cccc4C)cc23)OC(c2ccc(OC)cc2)(c2ccc(N3CCOCC3)cc2)C=C1` (centres unmarked) [Formula (85-1)], in series [1], the “Dissolution for 15 min” value came out at 3, the “Dissolution for 30 min” value stood at 2, the “Dissolution for 45 min” value was 1 and the “Dissolution for 1 hour” value is recorded as 1.

Consider `CCCOc1ccc(C2(c3ccc(OC)cc3)C=Cc3c4c(c5cc(OC)c(OC)cc5c3O2)-c2ccc(Sc3cccc(C(F)(F)F)c3)cc2C4(CC)CCC)cc1` (centres unmarked) [Formula (72-3)], for which the Residual ratio in series [2] amounted to 57%.

`CCCCCC1(CCCC)c2ccccc2-c2c1c1c(c3cc(OC)c(N4CCCc5ccccc54)cc23)OC(c2ccc(OC)cc2)(c2ccc(OCCC)cc2)C=C1` (centres unmarked) [Formula (16-1)]: in series [2], the Residual ratio came out at 59% and the “Color developing density at 23°C” value was 1.29 -.

Consider `CCC1(CC)CCC2(CC1)c1cc(OC)ccc1-c1c2c2c(c3cc(OC)c(Sc4c(C)cccc4C)cc13)OC(c1ccc(OC)cc1)(c1ccc(N3CCOCC3)cc1)C=C2` (centres unmarked) [Formula (J), reference compound], for which, in series [1], the “Dissolution for 15 min” value is listed as 4, the “Dissolution for 30 min” value is given as 3, the “Dissolution for 45 min” value is given as 3 and the “Dissolution for 1 hour” value is on record as 2.

Consider `COc1ccc(C2(c3ccc(N4CCOCC4)cc3)C=Cc3c4c(c5ccc(OC)cc5c3O2)-c2ccc(OC)cc2C42CC(C)(C)CC(C)(C)C2)cc1` (centres unmarked) [Formula (E), reference compound], for which, in series [1], the “Dissolution for 15 min” value is recorded as 4, the “Dissolution for 30 min” value is listed as 3, the “Dissolution for 45 min” value was 3 and the “Dissolution for 1 hour” value was determined as 2.

For the compound `CCCC1(C)c2ccccc2-c2c1c1c(c3cc(OC)c(-c4c(OC)cc(OC)cc4OC)cc23)OC(c2ccc(OC)cc2)(c2ccc(N(c3ccccc3)c3ccccc3)cc2)C=C1` (centres unmarked) [Formula (89-1)], in series [1], the “Dissolution for 15 min” value was 4, the “Dissolution for 30 min” value was determined as 2, the “Dissolution for 45 min” value was determined as 1 and the “Dissolution for 1 hour” value came to 1.

Consider `CCCCC1(CC)c2ccccc2-c2c1c1c(c3cc(OC)c(-c4ccccc4N4CCOCC4)cc23)OC(c2ccc(OC)cc2)(c2ccc(OC)cc2)C=C1` (centres unmarked) [Formula (81-2)], for which, in series [2], the “Color fading half-life at 23°C” value stood at 1.67 min.

For `COc1ccc(C2(c3ccc(N4CCOCC4)cc3)C=Cc3c4c(c5cc(Sc6c(C)cccc6C)c(OC)cc5c3O2)-c2ccc(OC)cc2C4(C)C)cc1` (centres unmarked) [Formula (K), reference compound], in series [1], the “Dissolution for 15 min” value was 4, the “Dissolution for 30 min” value is on record as 4, the “Dissolution for 45 min” value was found to be 3 and the “Dissolution for 1 hour” value is given as 3.

As for `CCC(C)C1(CC)c2cc(OC)ccc2-c2c1c1c(c3cc(OC)ccc23)OC(c2ccc(OC)cc2)(c2ccc(N3CCOCC3)cc2)C=C1` (centres unmarked) [Formula (3-2)], in series [1], the “Dissolution for 15 min” value is 3, the “Dissolution for 30 min” value is 1, the “Dissolution for 45 min” value was 1 and the “Dissolution for 1 hour” value is 1.

Take `CCCOc1ccc(C2(c3ccc(N(C)c4ccccc4)cc3)C=Cc3c4c(c5cc(-c6ccc(OC)cc6OC)c(OC)cc5c3O2)-c2ccccc2C4(C)CC)cc1F` (centres unmarked) [Formula (86-1)]: the Residual ratio in series [2] stood at 58%.

Take `CCCOc1ccc(C2(c3ccc(OC)cc3)C=Cc3c4c(c5cc(OC)c(OC)cc5c3O2)-c2ccc(N(C)c3ccccc3)cc2C4(C)C)cc1` (centres unmarked) [Formula (I), reference compound]: in series [1], the “Dissolution for 15 min” value came out at 4, the “Dissolution for 30 min” value came to 4, the “Dissolution for 45 min” value is 3 and the “Dissolution for 1 hour” value stood at 3.

Consider `CCCC1(CC)c2cc(C)ccc2-c2c1c1c(c3cc(OC)c(-c4ccc(N5CCOCC5)cc4)cc23)OC(c2ccc(C)cc2)(c2ccc(N(C)c3ccccc3)cc2)C=C1` (centres unmarked) [Formula (84-1)], for which, in series [2], the “Color fading half-life at 23°C” value turned out to be 2 min and the Residual ratio is 62%.

`CCC1(CC)c2ccccc2-c2c1c1c(c3cc(OC)c(N(C)c4ccccc4)cc23)OC(c2ccc(OC)cc2)(c2ccc(OC)cc2)C=C1` [Formula (F), reference compound]: in series [1], the “Dissolution for 15 min” value was determined as 4, the “Dissolution for 30 min” value is listed as 3, the “Dissolution for 45 min” value was determined as 3 and the “Dissolution for 1 hour” value amounted to 2.

Take `COc1ccc(C2(c3ccc(N4CCOCC4)cc3)C=Cc3c4c(c5cc(-c6ccc(N7CCOCC7)cc6)c(OC)cc5c3O2)-c2ccc(C)cc2C4(C)C)cc1` (centres unmarked) [Formula (G), reference compound]: in series [1], the “Dissolution for 15 min” value is given as 4, the “Dissolution for 30 min” value was 3, the “Dissolution for 45 min” value amounted to 3 and the “Dissolution for 1 hour” value is reported as 2.

For `CCCC1(CC)c2cc(Sc3c(C)cccc3C)ccc2-c2c1c1c(c3cc(OC)ccc23)OC(c2ccc(OC)cc2)(c2ccc(N(C)c3ccccc3)cc2)C=C1` (centres unmarked) [Formula (88-1)], in series [2], the “Color fading half-life at 23°C” value came to 0.717 min and the Residual ratio was found to be 68%.

Take `CCCOc1ccc(C2(c3ccc(OC)cc3)C=Cc3c4c(c5cc(C)c(OC)cc5c3O2)-c2ccc(N3CCOc5ccccc53)cc2C4(C)CC)cc1` (centres unmarked) [Formula (75-2)]: in series [2], the “Color fading half-life at 23°C” value was 2.33 min and the Residual ratio was 64%.

Regarding `CCCC1(CC)c2ccccc2-c2c1c1c(c3cc(OC)c(N(C)c4ccccc4)cc23)OC(c2ccc(OC)cc2)(c2ccc(N(c3ccccc3)c3ccccc3)cc2)C=C1` (centres unmarked) [Formula (83-2)], in series [2], the “Color fading half-life at 23°C” value turned out to be 1.53 min, the Residual ratio was determined as 74% and the “Color developing density at 23°C” value is listed as 1.25 -.

With `COc1ccc(C2(c3ccc(OC)cc3)C=Cc3c4c(c5ccc(OC)cc5c3O2)-c2ccc(OC(F)(F)F)cc2C4(C)C)cc1` [Formula (H), reference compound], in series [1], the “Dissolution for 15 min” value is given as 4, the “Dissolution for 30 min” value came out at 3, the “Dissolution for 45 min” value was determined as 3 and the “Dissolution for 1 hour” value is recorded as 2.

Take `COc1ccc(C2(c3ccc(N(c4ccccc4)c4ccccc4)cc3)C=Cc3c4c(c5cc(-c6c(OC)cc(OC)cc6OC)c(OC)cc5c3O2)-c2ccccc2C4(C)C)cc1` (centres unmarked) [Formula (L), reference compound]: in series [1], the “Dissolution for 15 min” value amounted to 4, the “Dissolution for 30 min” value worked out at 3, the “Dissolution for 45 min” value is 2 and the “Dissolution for 1 hour” value came to 1.
